In PubChem BioAssay AID179 (DTP/NCI, 2004):
Active and inactive are the calls of the source.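 How the source made its calls: active means compounds giving half or more protection of infected cells from virus-caused growth loss, again on retest; inactive means the rest.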 Where a SMILES comes first, the peptide text is derived from it.

System: CEM cells HIV-1 protection, formazan growth assay
Experiment: NCI AIDS Antiviral Assay
Conditions: for IC50: measured here: growth of uninfected CEM cells
How it was run: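 Human CEM cells, uninfected and HIV-1-infected, exposed to five drug concentrations; growth measured by soluble formazan assay and scored as percent protection from infection, with protecting compounds retested.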

| Structure (SMILES) | EC50 [µM] | IC50 [µM] | outcome |
| --- | --- | --- | --- |
| COC(=O)[C@]1(C)CCCC2(C)C1CC[C@H]1C=C(C)[C@H]3CCC12C3 (stereo partly drawn) | > 112 | > 112 | – |
| CCOC(=O)C1(C(=O)OCC)C[C@@H](C)[C@@H](O)C1 | > 200 | > 200 | – |
| NNC(=O)c1cc(=O)[nH][nH]1 | > 200 | > 200 | – |
| Cc1ccc(C)c(NC(=O)CCc2nc(=S)[nH][nH]2)c1 | – | – | inactive |
| O=C1CCCCC1=O | – | – | inactive |
| CC1(C)SC(CCCCCCCCCCCNC2=NCCCCCCCCCCC2)=N[C@@H]1C(=O)O | > 67.6 | 38 | – |
| CC1=C(C(=O)OC23CC4CC(CC(C4)C2)C3)C(c2ccccc2OC(F)F)C(C(=O)OC23CC4CC(CC(C4)C2)C3)=C(C)N1 (stereo not drawn) | > 100 | > 100 | – |
| c1ccc(C2=NCCc3cc4c(cc32)OCO4)cc1 | > 200 | 141 | – |
| COC(=O)c1ccc2cc(O)ccc2c1 | > 200 | 83.2 | – |
| CC12CCC(c3no[n+]([O-])c31)C2(C)C (stereo not drawn) | > 200 | 110 | – |
| C=CCSC[C@H](NC(=O)COc1ccccc1)C(=O)NC(C(=O)OCc1ccc([N+](=O)[O-])cc1)=C(C)C | > 25.7 | > 25.7 | – |
| Cc1ccc2c(ccc(/C=C/c3ccc(O)c4ncccc34)[n+]2C)c1 | > 28.8 | 5.89 | – |
| COC(=O)c1cc(C(=O)OC)c2c3[nH]cnc3ncn2c1=O | > 200 | > 200 | – |
| COC(=O)c1ccc(CCc2cc(O)ccc2O)cc1 | > 200 | 4.9 | – |
| COC(=O)/C=C/N1CC1 | > 200 | > 200 | – |
| CNC(=O)O/N=C\C=N\OC(=O)NC | – | – | inactive |
| COc1cc(C2C3=C(CCCC3=O)N(c3ccc(C)cc3)C3=C2C(=O)CCC3)c([N+](=O)[O-])cc1OC | > 200 | 145 | – |
| COc1cc(/C=C2\CCC(C)C3=C(c4cc(OC)c(OC)c(OC)c4)C(C#N)=C(N)OC32)cc(OC)c1OC (stereo not drawn) | – | – | inactive |
| CCOC(=O)c1nc2ccccc2nc1Oc1ccc(C(=O)OC)cc1 | > 200 | > 200 | – |
| CCc1n[nH]c(=S)n1/N=C/c1ccc(-c2ccc([N+](=O)[O-])cc2)o1 | > 11 | > 11 | – |
| CC1CCCC(C(=O)CC2CC(=O)NC(=O)C2)C1=O (stereo not drawn) | > 200 | > 200 | – |

| Structure (SMILES) | EC50 [µM] | IC50 [µM] | outcome |
| --- | --- | --- | --- |
| COC(=O)C1=C(C(=O)OC)C2=S(SC3=C2CCCC3)S1 (stereo not drawn) | – | – | inactive |
| C=CCC1(C)CCCN(Cc2ccccc2)C1=O (stereo not drawn) | > 200 | 105 | – |
| O=c1[nH]c(Nc2ccc(Br)c(C(F)(F)F)c2)nc2nc[nH]c12 | > 151 | 28.2 | – |
| CC(=O)C1(O)Cc2c(O)c3c(c(O)c2C(OC2CC(N)C(O)C(C)O2)C1)C(=O)c1ccccc1C3=O (stereo not drawn) | > 339 | 0.107 | – |
| NC(N)=NNCCOc1c(Cl)cccc1Cl | > 200 | 91.2 | – |
| C=CC1(c2ccc(OC)cc2)OCCCO1 | > 200 | 97.7 | – |
| C[C@]1(O)CC[C@H]2[C@@H]3CC[C@H]4C[C@H](O)[C@@H]5C[C@]4(CO5)[C@H]3CC[C@@]21C | > 110 | > 110 | – |
| O=c1[nH]c2ncsc2c(=O)n1OS(=O)(=O)c1ccccc1 | > 200 | 12.9 | – |
| CCOC(=O)N[C@@H]1C2CC(=O)C(O2)[C@@H]1OC (stereo partly drawn) | – | – | inactive |
| C=CCc1c(O)c2c(c3oc(=O)cc(C)c13)CC(C)O2 (stereo not drawn) | – | – | inactive |
| CCCCCCCCC/C=C(/CC(=O)O)C(=O)O | > 708 | > 708 | – |
| O=C1/C(=C/c2ccc(OCc3ccccc3)cc2)CCC/C1=C\c1ccc(OCc2ccccc2)cc1 | > 2.95 | > 2.95 | – |
| CC(C)(C)C1COP(=S)(c2ccccc2)OC1 (stereo not drawn) | > 69.2 | > 69.2 | – |
| O=C(c1ccccc1)N1C(=O)c2ccccc21 | > 162 | 49 | – |
| CC(CC[C@@H](C)C1CCC2[C@@H]3CC(O)C4CC(O)[C@@H](O)C[C@]4(C)C3CC[C@@]21C)C(C)(C)C (stereo partly drawn) | – | – | inactive |
| CCOC(=O)/C(C#N)=N\Nc1ccc(-n2c(C)nc3ccccc3c2=O)cc1 | > 200 | 89.1 | – |
| CC1=C(N2CCOCC2)C(N2CCOCC2)=C(C)C(=O)C1=O | > 200 | 14.5 | – |
| COc1ccc(/C=C/COC(C)=O)cc1OC | – | – | inactive |
| O=C(CCl)Nc1ccc(C(=O)N/N=C/c2ccc(Cl)cc2)cc1 | > 200 | 2.75 | – |
| CN(C)c1ccc(/C(Br)=C2\OC(=O)c3ccccc32)cc1 | > 200 | 112 | – |
| COc1ccc(COCC[C@H](C)OC2OC(CO[Si](C)(C)C(C)(C)C)C(O)C(O)C2O)cc1 (stereo partly drawn) | > 200 | 16.2 | – |

| Structure (SMILES) | EC50 [µM] | IC50 [µM] | outcome |
| --- | --- | --- | --- |
| Cc1ccc(/C([O-])=C(\C(=S)Nc2cccc(C(F)(F)F)c2)[n+]2ccccc2)cc1 | > 200 | 89.1 | – |
| CC(=O)NC(CCCCN(Cc1ccccc1)C(=O)NCCCl)C(=O)NCc1ccccc1 (stereo not drawn) | > 525 | 355 | – |
| CCCCCCOP(OCCCCCC)OCCCCCC | – | – | inactive |
| OCCCSCCCCSCCCO | > 41.7 | > 41.7 | – |
| CCCCCCC(c1cc(Cl)c(OC)c(C(=O)OC)c1)c1cc(Cl)c(OC)c(C(=O)OC)c1 | > 36.3 | > 36.3 | – |
| CCCCCCCCCCCCCCCC=C(c1cc(Br)c(OC)c(C(=O)OC)c1)c1cc(Br)c(OC)c(C(=O)OC)c1 | > 27.5 | > 27.5 | – |
| Nc1ncnc2c1ncn2C1C[C@H](O)[C@]2(CO)C[C@H]12 (stereo partly drawn) | > 50.1 | > 50.1 | – |
| O=C(O)C(Cc1ccccc1)NCc1c(O)ccc2c(-c3ccccc3)cc(=O)oc12 (stereo not drawn) | > 200 | > 200 | – |
| COC(=O)/C=C/CC(=O)NS(C)(=O)=O | > 200 | > 200 | – |
| C=CC1(C)CC(=O)C2(O)C(O1)C(OC(C)=O)C(OC(C)=O)C1C2C(OC(C)=O)CCC1(C)C (stereo not drawn) | > 26.9 | > 26.9 | – |
| CSc1nc2cc(Cl)ccc2c2c1C=NCCN2 | > 93.3 | 15.8 | – |
| CC1(C)CC(=O)C(CC2C(=O)c3ccccc3C2=O)C(=O)C1 | > 120 | > 120 | – |
| CC(=O)N(CN1C(=O)CCC1C(=O)O)c1ccccc1 (stereo not drawn) | – | – | inactive |
| COC(=O)c1ccc(/C=C/C2=CC(=O)C=CC2=O)cc1 | > 200 | 2.09 | – |
| Brc1ccc(C[N+]23CN4CN(CN(C4)C2)C3)cc1 | – | – | inactive |
| COc1ccc(C(C#N)NNC(=O)c2ccccc2O)cc1OC (stereo not drawn) | > 79.4 | 4.07 | – |
| CCCCCCCCCCCCNP(=S)(NCCCCCCCCCCCC)NCCCCCCCCCCCC | > 100 | > 100 | – |
| Cc1ccc(N=Nc2c(O)c3ccccc3[nH]c2=O)c(S(=O)(=O)N(C)C)c1 | > 200 | > 200 | – |
| COc1cccc(C2c3cc4c(cc3OC(Nc3ccccc3)C2C)OCO4)c1O (stereo not drawn) | > 200 | 3.55 | – |
| O=C(O)c1cc(O)c2c(=O)c3c(O)cc(O)c4c5c(O)cc(O)c6c(=O)c7c(O)cc(C(=O)O)c8c1c2c(c34)c(c65)c78 | – | – | inactive |
| O=[N+]([O-])c1ccc2c(c1)OCCOCCOc1ccc([N+](=O)[O-])cc1OCCOCCO2 | – | – | inactive |

| Structure (SMILES) | EC50 [µM] | IC50 [µM] | outcome |
| --- | --- | --- | --- |
| O=C1CC(=O)NC(=NN2C(=O)/C(=C/C(=O)c3ccco3)N=C2c2ccccc2)N1 | > 200 | 32.4 | – |
| CC(C)CC(NC(=O)CNC(=O)C(CC(C)C)NC(=O)C(Cc1c[nH]cn1)NC(=O)C(CC(N)=O)NC(=O)C1CCCN1C(=O)C(C)NC(=O)C(Cc1ccc(O)cc1)NC(=O)C(C)NC(=O)C1CCCN1C(=O)C(CCC(=O)O)NC(=O)C(CC(=O)O)NC(=O)C(Cc1ccccc1)NC(=O)C(CC(N)=O)NC(=O)C(C)N)C(=O)O (stereo not drawn) (H-ANFDEPAYAPNHLGL-OH; configuration not given here) | > 38 | > 38 | – |
| O=c1c(-c2ccccc2)nnc2n(Cc3ccccc3)c3ccccc3n12 | > 200 | 112 | – |
| N#Cc1c(-c2ccccc2)c(-c2ccccc2)nn(CC(=O)O)c1=O | > 759 | 47.9 | – |
| c1ccc(C(=C2C3CCC2C2CSCC32)c2ccccc2)cc1 (stereo not drawn) | > 93.3 | 46.8 | – |
| Cc1cc2ccc(N)nc2[nH]c1=O | > 200 | > 200 | – |
| CCC(C)[C@@H]1NC(=O)[C@@H]2CCCN2C(=O)C(CC(O)CCl)OC(=O)CCNC(=O)[C@H](C)N(C)C(=O)[C@H](C(C)C)N(C)C1=O (stereo partly drawn) (HELM PEPTIDE1{[CCC(C)[C@H](N[*:1])C(=O)[*:2]].[meV].[meA].[bAla].[O=C(C(CC(O)CCl)O[*:1])[*:2]].P}$PEPTIDE1,PEPTIDE1,1:R1-6:R2$$$V2.0) | > 2 | 0.11 | – |
| CCCCCCCCCCCCCCCCCC[N+](C)(C)Cc1ccc(C[N+](C)(C)CCCCCCCCCCCCCCCCCC)cc1 | – | – | inactive |
| C1CSCCSCCCSCCSCCCSCCSCCCSCCSC1 | > 7.08 | > 7.08 | – |
| CC(C)C1CCC/C=C/C=C/C=C/C=C/C(OC2OC(C)C(O)C(N)C2O)CC2OC(O)(CC(O)CC(O)C(O)CCC(=O)O1)CC(O)C2C(=O)O (stereo not drawn) | > 339 | > 339 | – |
| O=S(=O)(O)O | > 263 | 40.7 | – |
| CCOC(=O)c1s/c(=N\Nc2nc3ccccc3cc2C2OCCO2)n(Cc2ccccc2)c1C | > 5.5 | > 5.5 | – |
| CC(C)OP(=O)(NC(=S)c1ccccc1)OC(C)C | > 316 | 295 | – |
| NC(=O)NCCSC1CCCCC1O (stereo not drawn) | > 200 | > 200 | – |
| N#Cc1c(=O)c2ccccc2n2ccccc12 | > 100 | > 100 | – |
| CCOC(=O)C(=CCC1NCCc2c1[nH]c1ccccc21)C(=O)OCC (stereo not drawn) | > 20.4 | 12 | – |
| Cc1c(C(=O)CSc2nc3ccccc3c(=O)n2-c2ccccc2)c(=O)n(-c2ccccc2)n1C | > 5.62 | > 5.62 | – |
| O=C(Cc1nc2ccc(C(=O)c3ccccc3)cc2[nH]c1=O)C(=O)Nc1ccccc1[N+](=O)[O-] | > 79.4 | 51.3 | – |
| COc1ccc(-c2cc(-c3ccccc3)c3ccccc3n2)c(OC)c1OC | > 200 | > 200 | – |
| O=C(CC(=O)N1CCN(c2ccccn2)CC1)N1CCN(c2ccccn2)CC1 | > 97.7 | > 97.7 | – |
| CCCc1cc(=O)oc2c3c(ccc12)OC(C)(C)[C@H](OC(=O)C12CCC(C)(C(=O)O1)C2(C)C)[C@@H]3OC(=O)C12CCC(C)(C(=O)O1)C2(C)C (stereo partly drawn) | 0.891 | > 200 | – |
